According to patent publication US20260062426A1, “CYCLIN DEPENDENT KINASE DEGRADERS AND METHODS OF USE THEREOF” (Differentiated Therapeutics Inc, priority 2023, published 2026):

What was measured:
Assay type in all cases: cell-based
CCNE1 = target: T1, CCNE1 (Homo sapiens, UniProt P24864+P24941); test: CCNE1 HIBIT PQ (protein quantification), degradation; conditions: for CCNE1 HIBIT PQ Max (%): Max = Maximum; for DC50: PQ = Protein Quantification
T1 construct: host or cells: HEK293
Summary of the method: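 HEK293 cells carrying HiBiT-tagged CCNE1 were grown in EMEM with 10% FBS and seeded in 384-well plates at 1.6×10⁵ cells/well in 50 uL, then incubated overnight at 37° C and 5% CO₂. Compound treatment lasted 6 hours, and CCNE1 protein was then measured with a HiBiT assay. High control was 0.1% DMSO-treated cells and low control was culture medium only. Maximal degradation and DC50 were derived from these readings.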

CDK2 = target: T2, CDK2 (Homo sapiens, UniProt P24941); test: CDK2 HIBIT PQ (protein quantification), degradation; conditions: for CDK2 HIBIT PQ Max (%): Max = Maximum; for DC50: PQ = Protein Quantification
T2 construct: host or cells: HEK293
Summary of the method: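 After overnight incubation at 37° C and 5% CO2 in 384-well plates (1.6×10^5 cells/well, 50 uL, DMEM with 10% FBS), HEK293 cells with HiBiT-tagged CDK2 were treated with compound for 6 hours. Detection used 20 μL of Nano-Glo HiBiT lytic reagent with LgBiT protein, 20 minutes of shaking at room temperature and an EnVision reading, with 0.1% DMSO as high control and medium alone as low control. These readings were the basis for DC50 and maximal degradation.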

CDK9 = target: T3, CDK9 (Homo sapiens, UniProt P50750); test: CDK9 HIBIT PQ (protein quantification), degradation; conditions: for Dmax: Max = Maximum; for DC50: PQ = Protein Quantification
T3 construct: host or cells: HEK293
Summary of the method: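 CDK9 protein was read by HiBiT assay in treated HEK293 cells carrying HiBiT-tagged CDK9, seeded at 1.6×10^5 cells/well in 50 uL in 384-well plates and incubated overnight at 37° C and 5% CO2. Controls were 0.1% DMSO-treated cells (high) and culture medium only (low). Maximal degradation, Dmax and DC50 were calculated from these readings.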

T3 sequence (P50750 whole entry): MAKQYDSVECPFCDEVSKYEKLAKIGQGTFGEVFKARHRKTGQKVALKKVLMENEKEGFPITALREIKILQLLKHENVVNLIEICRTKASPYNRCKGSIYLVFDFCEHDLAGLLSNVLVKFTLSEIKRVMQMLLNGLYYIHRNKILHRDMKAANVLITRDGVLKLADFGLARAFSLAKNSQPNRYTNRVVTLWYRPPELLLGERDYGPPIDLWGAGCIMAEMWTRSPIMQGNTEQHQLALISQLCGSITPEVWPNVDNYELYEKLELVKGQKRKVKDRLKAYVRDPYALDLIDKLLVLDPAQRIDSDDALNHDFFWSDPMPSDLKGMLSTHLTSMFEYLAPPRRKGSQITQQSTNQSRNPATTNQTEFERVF

CC(C)Oc1c(-c2cn[nH]c2)ncn2nc(N[C@H]3CCN(S(=O)(=O)c4cccc(CN5CCN(c6ccc7c(N8CCC(=O)NC8=O)nn(C)c7c6)CC5(C)C)c4)C[C@H]3C)nc12 [Compound 52]
CCNE1 HIBIT PQ Max (%) (CCNE1): 93% | DC50 (CCNE1): 13.8 nM | CDK2 HIBIT PQ Max (%) (CDK2): 98% | DC50 (CDK2): 2.8 nM | Dmax (CDK9): 93% | DC50 (CDK9): 38.7 nM

CC(C)Oc1c(-c2cn[nH]c2)ncn2nc(Nc3ccc(S(=O)(=O)N(C)CCCN4CCN(c5ccc6c(c5)n(C)c(=O)n6C5CCC(=O)NC5=O)C[C@@H]4C)cc3F)nc12 (stereo partly drawn) [Compound 62]
CCNE1 HIBIT PQ Max (%) (CCNE1): 65% | DC50 (CCNE1): 0.92 nM | CDK2 HIBIT PQ Max (%) (CDK2): 91% | DC50 (CDK2): 0.1 nM | Dmax (CDK9): 75% | DC50 (CDK9): 1.22 nM

CC(C)Oc1c(-c2cn[nH]c2)ncn2nc(Nc3ccc(S(=O)(=O)N(C)CCCN4CCN(c5ccc6c(c5)n(C)c(=O)n6C5CCC(=O)NC5=O)C[C@H]4C)cc3F)nc12 (stereo partly drawn) [Compound 63]
CCNE1 HIBIT PQ Max (%) (CCNE1): 66% | DC50 (CCNE1): 1.24 nM | CDK2 HIBIT PQ Max (%) (CDK2): 92% | DC50 (CDK2): < 0.152 nM | Dmax (CDK9): 85% | DC50 (CDK9): 2.07 nM

CC(C)Oc1c(-c2cn[nH]c2)ncn2nc(Nc3ccc(S(=O)(=O)N(C)CCCN4CCN(c5ccc6c(c5)n(C)c(=O)n6C5CCC(=O)NC5=O)C[C@@H]4C(C)C)cc3F)nc12 (stereo partly drawn) [Compound 64]
CCNE1 HIBIT PQ Max (%) (CCNE1): 65% | DC50 (CCNE1): 1.79 nM | CDK2 HIBIT PQ Max (%) (CDK2): 89% | DC50 (CDK2): 0.2 nM | Dmax (CDK9): 74% | DC50 (CDK9): 3.38 nM

CC(C)Oc1c(-c2cn[nH]c2)ncn2nc(Nc3ccc(S(=O)(=O)N(C)CCCN4CCN(c5ccc6c(c5)n(C)c(=O)n6C5CCC(=O)NC5=O)C[C@H]4C(C)C)cc3F)nc12 (stereo partly drawn) [Compound 65]
CCNE1 HIBIT PQ Max (%) (CCNE1): 39% | CDK2 HIBIT PQ Max (%) (CDK2): 85% | DC50 (CDK2): 0.2 nM | Dmax (CDK9): 49%

CC(C)Oc1c(-c2cn[nH]c2)ncn2nc(Nc3ccc(S(=O)(=O)N(C)CCCN4CCN(c5ccc6c(c5)n(C)c(=O)n6C5CCC(=O)NC5=O)CC4)cc3F)nc12 (stereo not drawn) [Compound 66]
CCNE1 HIBIT PQ Max (%) (CCNE1): 70% | DC50 (CCNE1): 0.93 nM | CDK2 HIBIT PQ Max (%) (CDK2): 92% | DC50 (CDK2): 0.1 nM | Dmax (CDK9): 69% | DC50 (CDK9): 1.87 nM

CC(C)Oc1c(-c2cn[nH]c2)ncn2nc(Nc3ccc(S(=O)(=O)N(C)CCCN4C5CCC4CN(c4ccc6c(c4)n(C)c(=O)n6C4CCC(=O)NC4=O)C5)cc3F)nc12 (stereo not drawn) [Compound 68]
CCNE1 HIBIT PQ Max (%) (CCNE1): 67% | DC50 (CCNE1): 1.05 nM | CDK2 HIBIT PQ Max (%) (CDK2): 90% | DC50 (CDK2): 0.1 nM | Dmax (CDK9): 73% | DC50 (CDK9): 2.76 nM

CC(C)Oc1c(-c2cn[nH]c2)ncn2nc(Nc3ccc(S(=O)(=O)N(C)CCCN4CC5CC4CN5c4ccc5c(c4)n(C)c(=O)n5C4CCC(=O)NC4=O)cc3F)nc12 (stereo not drawn) [Compound 69]
CCNE1 HIBIT PQ Max (%) (CCNE1): 18% | CDK2 HIBIT PQ Max (%) (CDK2): 71% | DC50 (CDK2): 0.5 nM | Dmax (CDK9): 6%

CC(C)Oc1c(-c2cn[nH]c2)ncn2nc(Nc3ccc(S(=O)(=O)N(C)CCCN4C5CC4CN(c4ccc6c(c4)n(C)c(=O)n6C4CCC(=O)NC4=O)C5)cc3F)nc12 (stereo not drawn) [Compound 70]
CCNE1 HIBIT PQ Max (%) (CCNE1): 20% | CDK2 HIBIT PQ Max (%) (CDK2): 61% | DC50 (CDK2): 0.3 nM | Dmax (CDK9): 9%

CC(C)Oc1c(-c2cn[nH]c2)ncn2nc(Nc3ccc(S(=O)(=O)N4CCC(CN5CCC(c6ccc7c(c6)n(C)c(=O)n7C6CCC(=O)NC6=O)CC5)C4)cc3F)nc12 (stereo not drawn) [Compound 71]
CCNE1 HIBIT PQ Max (%) (CCNE1): 35% | CDK2 HIBIT PQ Max (%) (CDK2): 78% | Dmax (CDK9): 29%

CC(C)Oc1c(-c2cn[nH]c2)ncn2nc(Nc3ccc(S(=O)(=O)N4CCCC(CN5CCC(c6ccc7c(c6)n(C)c(=O)n7C6CCC(=O)NC6=O)CC5)C4)cc3F)nc12 (stereo not drawn) [Compound 72]
CCNE1 HIBIT PQ Max (%) (CCNE1): 64% | DC50 (CCNE1): 0.17 nM | CDK2 HIBIT PQ Max (%) (CDK2): 88% | Dmax (CDK9): 71% | DC50 (CDK9): 0.5 nM

CC(C)Oc1c(-c2cn[nH]c2)ncn2nc(Nc3ccc(S(=O)(=O)c4ccc(CN5CCC(c6ccc7c(c6)n(C)c(=O)n7[C@H]6CCC(=O)NC6=O)CC5)o4)cc3F)nc12 [Compound 73]
CCNE1 HIBIT PQ Max (%) (CCNE1): 27% | CDK2 HIBIT PQ Max (%) (CDK2): 79% | DC50 (CDK2): 0.8 nM | Dmax (CDK9): 31%

CC(C)Oc1c(-c2cn[nH]c2)ncn2nc(Nc3ccc(S(=O)(=O)N4CC5C4CCN5CC4CCN(c5cccc6c5n(C)c(=O)n6C5CCC(=O)NC5=O)CC4)cc3F)nc12 (stereo not drawn) [Compound 74]
CCNE1 HIBIT PQ Max (%) (CCNE1): 71% | DC50 (CCNE1): 3.57 nM | CDK2 HIBIT PQ Max (%) (CDK2): 91% | DC50 (CDK2): 0.7 nM | Dmax (CDK9): 88% | DC50 (CDK9): 7.04 nM

CC(C)Oc1c(-c2cn[nH]c2)ncn2nc(Nc3ccc(S(=O)(=O)N4CCC5(CCN(CC6CN(c7cccc8c7n(C)c(=O)n8C7CCC(=O)NC7=O)C6)C5)C4)cc3F)nc12 (stereo not drawn) [Compound 75]
CCNE1 HIBIT PQ Max (%) (CCNE1): 28% | CDK2 HIBIT PQ Max (%) (CDK2): 85% | DC50 (CDK2): 4.7 nM | Dmax (CDK9): 55% | DC50 (CDK9): 92.5 nM

CC(C)Oc1c(-c2cn[nH]c2)ncn2nc(Nc3ccc(S(=O)(=O)c4cccc(CC5CC(c6ccc7c(c6)CN(C6CCC(=O)NC6=O)C7=O)C5)c4)cc3F)nc12 (stereo not drawn) [Compound 77, 3-(5-(3-(3-((3-fluoro-4-((8-isopropoxy-7-(1H-pyrazol-4-yl)-[1,2,4]triazolo[1,5-c]pyrimidin-2-yl)amino)phenyl)sulfonyl)benzyl)cyclobutyl)-1-oxoisoindolin-2-yl)piperidine-2,6-dione]
CCNE1 HIBIT PQ Max (%) (CCNE1): 82% | DC50 (CCNE1): 34.4 nM | CDK2 HIBIT PQ Max (%) (CDK2): 95% | DC50 (CDK2): 12.4 nM | Dmax (CDK9): 37%

CC(C)Oc1c(-c2cn[nH]c2)ncn2nc(Nc3ccc(S(=O)(=O)c4cccc(CN5CC(c6ccc7c(N8CCC(=O)NC8=O)nn(C)c7c6)C5)c4)cc3F)nc12 [Compound 78]
CCNE1 HIBIT PQ Max (%) (CCNE1): 36% | CDK2 HIBIT PQ Max (%) (CDK2): 85% | DC50 (CDK2): 2 nM | Dmax (CDK9): 12%

CC(C)Oc1c(-c2cn[nH]c2)ncn2nc(Nc3ccc(S(=O)(=O)c4cccc(C(C)N5CCN(c6ccc7c(N8CCC(=O)NC8=O)nn(C)c7c6)C6CC65)c4)cc3F)nc12 (stereo not drawn) [Compound 83]
CCNE1 HIBIT PQ Max (%) (CCNE1): 28% | CDK2 HIBIT PQ Max (%) (CDK2): 89% | DC50 (CDK2): 7.6 nM | Dmax (CDK9): 23%

CC(C)Oc1c(-c2cn[nH]c2)ncn2nc(Nc3ccc(S(=O)(=O)N4CCCC(CN5CCN(c6ccc7c(N8CCC(=O)NC8=O)nn(C)c7c6)C6CC65)C4)cc3F)nc12 (stereo not drawn) [Compound 88]
CCNE1 HIBIT PQ Max (%) (CCNE1): 25% | CDK2 HIBIT PQ Max (%) (CDK2): 61% | DC50 (CDK2): 6.5 nM | Dmax (CDK9): 18%

CC(C)Oc1c(-c2cn[nH]c2)ncn2nc(Nc3ccc(S(=O)(=O)c4cccc(C[C@H]5C[C@H](c6ccc7c(N8CCC(=O)NC8=O)nn(C)c7c6)C5)c4)cc3F)nc12 [Compound 89, rel-1-(6-((1s,3r)-3-(3-((3-fluoro-4-((8-isopropoxy-7-(1H-pyrazol-4-yl)-[1,2,4]triazolo[1,5-c]pyrimidin-2-yl)amino)phenyl)sulfonyl)benzyl)cyclobutyl)-1-methyl-1H-indazol-3-yl)dihydropyrimidine-2,4(1H,3H)-dione]
CCNE1 HIBIT PQ Max (%) (CCNE1): 38% | CDK2 HIBIT PQ Max (%) (CDK2): 70% | DC50 (CDK2): 43.4 nM | Dmax (CDK9): 17%

CC(C)Oc1c(-c2cn[nH]c2)ncn2nc(Nc3ccc(S(=O)(=O)c4cccc(C[C@H]5C[C@@H](c6ccc7c(N8CCC(=O)NC8=O)nn(C)c7c6)C5)c4)cc3F)nc12 [Compound 90, rel-1-(6-((1r,3s)-3-(3-((3-fluoro-4-((8-isopropoxy-7-(1H-pyrazol-4-yl)-[1,2,4]triazolo[1,5-c]pyrimidin-2-yl)amino)phenyl)sulfonyl)benzyl)cyclobutyl)-1-methyl-1H-indazol-3-yl)dihydropyrimidine-2,4(1H,3H)-dione]
CCNE1 HIBIT PQ Max (%) (CCNE1): 48% | CDK2 HIBIT PQ Max (%) (CDK2): 91% | DC50 (CDK2): 14.3 nM | Dmax (CDK9): 14%

CC(C)Oc1c(-c2cn[nH]c2)ncn2nc(Nc3ccc(S(=O)(=O)N4CCCC(CN5CCN(c6ccc7c(N8CCC(=O)NC8=O)nn(C)c7c6)C(C)C5)C4)cc3F)nc12 (stereo not drawn) [Compound 91]
CCNE1 HIBIT PQ Max (%) (CCNE1): 71% | DC50 (CCNE1): 12.5 nM | CDK2 HIBIT PQ Max (%) (CDK2): 84% | DC50 (CDK2): 3.2 nM | Dmax (CDK9): 67% | DC50 (CDK9): 61.5 nM
